Experimental data from article PMC9760430, “A stapled chromogranin A-derived peptide homes in on tumors that express αvβ6 or αvβ8 integrins” (International Journal of Biological Sciences, 2023).
Peptide text beside a SMILES is read from it. * marks the point of attachment. X1 = CC1(C)C(/C=C/C2=C(Oc3ccc(S(=O)(=O)O)cc3)C(=C\C=C3/N(CCCCCC(=O)NCCN4C(=O)CC(*)C4=O)c4ccc(S(=O)(=O)O)cc4C3(C)C)/CCC2)=[N+](CCCCS(=O)(=O)O)c2ccc(S(=O)(=O)[O-])cc21

What was measured:
Human αvβ6 = target: T1, Human αvβ6 (Homo sapiens, UniProt P06756+P18564); test: direct integrin binding assay of peptide-IRDye conjugates, human αvβ6-coated plates; details: plates coated with recombinant human αvβ6; conjugate 0.01-100 nM, 1 h; bound NIR fluorescence (Odyssey CLx); mean ± SE, n = 2 experiments
T1 construct: purchased Bio-Techne
Description: (§1) The affinity of peptide-IRDye conjugates for αvβ6 and αvβ8 integrins was determined by a direct binding assay using microtiter plates coated with αvβ6 or αvβ8 (Bio-Techne). After 1 h of incubation, the plates were washed; bound fluorescence was quantified by scanning the plates with an Odyssey CLx near-infrared fluorescence imaging system (LI-COR). […]
(§2) The simplified molecular-input line-entry system (SMILES) of 5a-, 2a-, Cys- and 5a-Scr- […]
(§3) The concentration of each conjugate was quantified by spectrophotometric analysis at 774 nm (molar absorption coefficient, 240,000 M-1, cm-1) (Figure S3B). The final yield of 5a-IRDye […]
(§4) Binding of peptide-IRDye conjugates to avb6 and avb8 integrin
(§5) The binding affinity of peptide-IRDye conjugates for human and murine avb6 and avb8 integrins was determined as follows: 96-well clear-bottom black microtiter plates (Corning® cat. 3601) were coated with 2 μg/ml avb6 or avb8 (50 µl/well), in Dulbecco’s phosphate-buffered saline containing Ca2+ and Mg2+ (DPBS) and left to incubate overnight at 4°C. […]
(§6) conjugates were added to the microtiterplates and incubated at room temperature for 1 h (see Experimental Section). After washing, bound fluorescence was measured using an Odyssey CLx (LI-COR) scanner. Representative images of the scanned plates and quantification of binding are shown. […]

Human αvβ8 = target: T2, Human αvβ8 (Homo sapiens, UniProt P06756+P26012); test: direct integrin binding assay of peptide-IRDye conjugates, human αvβ8-coated plates; details: plates coated with recombinant human αvβ8; conjugate 0.01-100 nM, 1 h; bound NIR fluorescence; mean ± SE, n = 2 experiments
T2 construct: purchased Bio-Techne
Description: as §1, §2, §3, §4, §5, §6

T1 sequence (P06756 31-992 limits assumed): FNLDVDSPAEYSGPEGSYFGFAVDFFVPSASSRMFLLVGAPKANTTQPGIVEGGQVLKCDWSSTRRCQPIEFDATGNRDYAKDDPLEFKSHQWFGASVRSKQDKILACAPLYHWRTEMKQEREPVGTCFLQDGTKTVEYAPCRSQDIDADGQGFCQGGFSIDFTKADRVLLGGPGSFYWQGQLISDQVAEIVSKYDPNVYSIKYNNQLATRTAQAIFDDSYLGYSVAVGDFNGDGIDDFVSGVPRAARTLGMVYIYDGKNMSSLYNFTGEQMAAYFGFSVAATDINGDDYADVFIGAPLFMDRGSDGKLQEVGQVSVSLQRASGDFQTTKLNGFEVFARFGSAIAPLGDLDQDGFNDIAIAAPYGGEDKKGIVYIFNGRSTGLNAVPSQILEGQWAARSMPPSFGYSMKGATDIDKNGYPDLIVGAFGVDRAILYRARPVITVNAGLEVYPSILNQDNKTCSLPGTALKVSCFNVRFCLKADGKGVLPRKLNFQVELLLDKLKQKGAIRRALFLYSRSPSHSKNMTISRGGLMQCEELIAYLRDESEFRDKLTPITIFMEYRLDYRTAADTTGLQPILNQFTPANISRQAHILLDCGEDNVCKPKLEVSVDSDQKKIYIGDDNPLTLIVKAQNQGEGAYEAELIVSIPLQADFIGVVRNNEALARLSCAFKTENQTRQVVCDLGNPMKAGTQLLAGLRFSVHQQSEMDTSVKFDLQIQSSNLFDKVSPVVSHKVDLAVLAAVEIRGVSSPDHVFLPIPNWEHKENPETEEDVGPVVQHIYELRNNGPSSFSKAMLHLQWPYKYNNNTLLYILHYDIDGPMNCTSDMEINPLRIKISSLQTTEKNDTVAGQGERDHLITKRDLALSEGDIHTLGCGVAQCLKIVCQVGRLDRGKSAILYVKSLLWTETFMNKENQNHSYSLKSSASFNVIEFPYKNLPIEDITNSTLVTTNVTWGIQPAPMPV
T1 sequence (P18564 22-707 limits assumed): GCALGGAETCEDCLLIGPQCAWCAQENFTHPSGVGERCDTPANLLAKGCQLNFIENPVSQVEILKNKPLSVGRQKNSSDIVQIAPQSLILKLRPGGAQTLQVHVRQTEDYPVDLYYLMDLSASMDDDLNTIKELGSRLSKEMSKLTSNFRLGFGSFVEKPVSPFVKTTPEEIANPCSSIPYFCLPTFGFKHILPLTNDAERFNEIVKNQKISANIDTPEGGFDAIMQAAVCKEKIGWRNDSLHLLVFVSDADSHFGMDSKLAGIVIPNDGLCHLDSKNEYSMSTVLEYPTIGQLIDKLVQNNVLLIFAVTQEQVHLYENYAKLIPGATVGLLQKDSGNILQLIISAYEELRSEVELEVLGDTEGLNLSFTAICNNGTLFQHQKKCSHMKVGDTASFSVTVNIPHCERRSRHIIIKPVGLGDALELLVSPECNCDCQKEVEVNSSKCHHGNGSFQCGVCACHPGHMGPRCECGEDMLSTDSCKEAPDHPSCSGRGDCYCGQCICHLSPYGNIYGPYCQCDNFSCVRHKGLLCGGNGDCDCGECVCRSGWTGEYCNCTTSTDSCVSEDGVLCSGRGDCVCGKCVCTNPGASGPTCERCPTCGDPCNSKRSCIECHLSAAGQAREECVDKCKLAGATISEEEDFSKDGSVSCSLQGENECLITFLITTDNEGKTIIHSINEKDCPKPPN
T2 sequence (P06756 31-992 limits assumed): as the sequence (P06756 31-992 limits assumed) above
T2 sequence (P26012 43-684 limits assumed): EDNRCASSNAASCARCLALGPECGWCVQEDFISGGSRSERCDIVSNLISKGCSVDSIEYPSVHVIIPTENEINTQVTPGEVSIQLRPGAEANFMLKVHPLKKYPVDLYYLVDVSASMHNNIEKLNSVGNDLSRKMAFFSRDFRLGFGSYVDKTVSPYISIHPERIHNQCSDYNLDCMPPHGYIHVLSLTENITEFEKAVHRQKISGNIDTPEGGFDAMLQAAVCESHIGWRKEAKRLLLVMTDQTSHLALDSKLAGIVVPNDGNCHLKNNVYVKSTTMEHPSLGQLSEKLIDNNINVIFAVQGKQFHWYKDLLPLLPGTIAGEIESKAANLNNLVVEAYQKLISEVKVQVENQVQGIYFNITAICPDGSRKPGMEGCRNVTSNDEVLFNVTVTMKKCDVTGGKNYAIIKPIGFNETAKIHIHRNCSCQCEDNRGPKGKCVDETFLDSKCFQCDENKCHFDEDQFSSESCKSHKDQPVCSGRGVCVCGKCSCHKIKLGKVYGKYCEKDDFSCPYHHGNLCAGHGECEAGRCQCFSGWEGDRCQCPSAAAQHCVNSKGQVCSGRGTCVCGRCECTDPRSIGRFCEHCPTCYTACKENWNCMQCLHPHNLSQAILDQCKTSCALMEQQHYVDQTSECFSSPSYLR

Row | Compound | EC50 (Human αvβ6) | EC50 (Human αvβ8)
1 | CC1(C)C(/C=C/C2=C(Oc3ccc(S(=O)(=O)O)cc3)C(=C\C=C3/N(CCCCCC(=O)NCCN4C(=O)CC(SC[C@H](N)C(=O)O)C4=O)c4ccc(S(=O)(=O)O)cc4C3(C)C)/CCC2)=[N+](CCCCS(=O)(=O)O)c2ccc(S(=O)(=O)[O-])cc21 (stereo partly shown) [Cys-IRDye] | > 100 nM | > 100 nM
2 | CC[C@H](C)[C@H](NC(=O)[C@H](CCCNC(=N)N)NC(=O)[C@H](CCC(=O)O)NC(=O)[C@H](CCC(=O)O)NC(=O)CNC(=O)[C@H](CCCNC(=N)N)NC(=O)[C@H](CC(C)C)NC(=O)[C@@H](NC(=O)[C@H](CCC(=O)O)NC(=O)[C@H](Cc1ccccc1)NC(=O)[C@@H](N)CSC1CC(=O)N(CCNC(=O)CCCCCN2/C(=C\C=C3\CCCC(/C=C/C4=[N+](CCCCS(=O)(=O)O)c5ccc(S(=O)(=O)[O-])cc5C4(C)C)=C3Oc3ccc(S(=O)(=O)O)cc3)C(C)(C)c3cc(S(=O)(=O)O)ccc32)C1=O)[C@@H](C)O)C(=O)N[C@@H](CC(C)C)C(=O)N[C@@H](CO)C(=O)N[C@H](C(=O)N[C@@H](CC(C)C)C(=O)N[C@@H](CCCNC(=N)N)C(=O)N[C@@H](Cc1c[nH]cn1)C(=O)N[C@@H](CCC(N)=O)C(=O)N[C@@H](CC(N)=O)C(=O)N[C@@H](CC(C)C)C(=O)N[C@@H](CC(C)C)C(=O)N[C@@H](CCCCN)C(=O)N[C@@H](CCC(=O)O)C(=O)N[C@@H](CC(C)C)C(=O)N[C@@H](CCC(N)=O)C(=O)N[C@@H](CC(=O)O)C(N)=O)[C@@H](C)CC (stereo partly shown) [2a-IRDye] (H-C(X1)FETLRGEERILSILRHQNLLKELQD-NH2) | > 100 nM | > 100 nM
